These results are taken from US20140350014A1, “COMPOUNDS FOR INHIBITING THE INTERACTION OF BCL2 WITH BINDING PARTNERS” (NOVARTIS AG, priority 2011, published 2014).

The structures appear in SMILES notation.

BCL-2 binding to BAD peptide, sequence (P10415 whole entry): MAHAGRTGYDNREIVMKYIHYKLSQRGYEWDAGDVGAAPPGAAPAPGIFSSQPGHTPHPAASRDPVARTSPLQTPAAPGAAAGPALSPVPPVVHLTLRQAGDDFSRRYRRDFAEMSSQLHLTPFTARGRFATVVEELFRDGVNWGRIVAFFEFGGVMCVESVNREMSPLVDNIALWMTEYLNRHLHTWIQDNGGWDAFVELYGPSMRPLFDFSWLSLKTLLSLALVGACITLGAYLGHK

The first assay addresses BCL-2 binding to BAD peptide (Homo sapiens, UniProt P10415). Nature of the assay: BCL2 SPR solution inhibition assay, BAD peptide surface (Biacore A100). The note with it: read-out: BCL2_SPR IC50 BAD. From the text:
(§1) 33The present method includes utility of a Surface plasmon resonance (SPR)-based biosensor (Bia34core™′ GE Healthcare, Uppsala, Sweden) to characterize BCL-2 inhibitors. 35
(§2) 36Biacore™ utilizes the phenomenon of surface plasmon resonance (SPR) to detect and measure 37binding interactions. In a typical Biacore experiment, one of the interacting molecules (ligand) is i38mmobilized on a flexible dextran matrix while the interacting partner (analyte) is allowed to fl39ow across that surface. A binding interaction results in an increase in mass on the sensor surface 40and a corresponding direct change in the refractive index of the medium in the vicinity of the 41sensor surface. Changes in refractive index or signal are recorded in resonance units (R.U.) Signal 42changes due to association and dissociation of complexes are monitored in a non-invasive manne43r, continuously and in real-time, the results of which are reported in the form of a sensorgram.44
(§3) The SPR assay is con45figured to examine solution inhibition of BCL-2 binding to peptide derivatized sensor surfa46ces to generate IC50 values as a measure of inhibitor potency.
(§4) Biacore™ A100 (GE Healthcare, Uppsala, Sweden) was used to conduct all experiments reported herein. Sensor surface preparation and all interaction analyses experiments were performed at 25° C. Reagents were purchased from GE Healthcare. Running buffer containing 10 mM Hepes, pH7.4, 150 mM sodium chloride, 1.25 mM Dithiothreitol, 3% Dimethyl sulfoxide and 0.05% polysorbate 20 were utilized throughout all analyses.
(§5) Biotinylated BAK, BAD and NOXA peptides were diluted to 10 nM in running buffer and captured onto a sensor surface pre-derivatized with streptavidin (sensor chip SA) to peptide surface densities in the range 50-100 R.U. Peptide captured surfaces were blocked with 500 μM PEO2-Biotin.
(§6) Interaction analyses were performed by first equilibrating each sample within a 6 point three fold compound dilution series in the range 16 μM to […] with 56 nM BCL-2 for one hour during instrument start-up procedures. Protein compound mixtures were then injected over each peptide surface in parallel for 60 seconds at a flow-rate of 30 μL/min. 56 nM BCL-2 control samples were also prepared and run at regular intervals during the assay. Surface regeneration was performed at the end of each analysis cycle by two 30 second injections of 10 mM Glycine, pH 2.5, 1M Sodium Chloride, 0.05% polysorbate 20. Samples and control compound samples were run in duplicate and controls are also run at regular intervals during the assay to monitor surface and assay performance.
(§7) Data analyses are carried out using Biacore™ A100 evaluation software v1.1 to validate assay quality. Binding level report points were used relative to BCL-2 control samples to calculate % inhibition values for each compound protein mixture. […] The range of data shown in table 1 represents the high and low IC50 values obtained from multiple experiments.
For the compound `CCCCN(CCCC)C(=O)c1cc(C)n(-c2ccc(-c3ccc(Cl)c(C(N)=O)c3)cc2C(=O)N2Cc3ccccc3C[C@H]2CO)n1` [Example 34], the IC50 was 600 to 623 nM.

For `CCCCN(CCCC)C(=O)c1cc(C)n(-c2ccc(-c3ccc(Cl)c(C(=O)NC)c3)cc2C(=O)N2Cc3ccccc3C[C@H]2CO)n1` [Example 35], the half-maximal inhibitory concentration (IC50) was in the range of 515 to 547 nM.

`CCCCN(CCCC)C(=O)c1cc(C)n(-c2ccc(-c3cccc(OC(F)(F)F)c3)cc2C(=O)N2Cc3ccccc3C[C@H]2CO)n1` [Example 36]: the IC50 was 837 to 848 nM.

Consider `CCCCN(CCCC)C(=O)c1cc(C)n(-c2ccc(-c3ccc(C(=O)NCC)c(F)c3)cc2C(=O)N2Cc3ccccc3C[C@H]2CO)n1` [Example 37], for which the IC50 was 312 to 319 nM.

For `CCCCN(CCCC)C(=O)c1cc(C)n(-c2ccc(-c3cccc(S(C)(=O)=O)c3)cc2C(=O)N2Cc3ccccc3C[C@H]2CO)n1` [Example 38], the IC50 lay within 885 to 891 nM.

For `CCCCN(CCCC)C(=O)c1cc(C)n(-c2ccc(-c3ccc(Cl)c(C(=O)N(C)C)c3)cc2C(=O)N2Cc3ccccc3C[C@H]2CO)n1` [Example 39], the IC50 lay within 727 to 738 nM.

As to `CCCCN(CCCC)C(=O)c1cc(C)n(-c2ccc(-c3ccccc3C#N)cc2C(=O)N2Cc3ccccc3C[C@H]2CO)n1` [Example 40], the IC50 was 6490 to 7830 nM.

In the case of `CCCCN(CCCC)C(=O)c1cc(C)n(-c2ccc(-c3c(C)noc3C)cc2C(=O)N2Cc3ccccc3C[C@H]2CO)n1` [Example 41], the IC50 is 1930 to 2030 nM.

On to `CCCCN(CCCC)C(=O)c1cc(C)n(-c2ccc(-c3cccc(F)c3Cl)cc2C(=O)N2Cc3ccccc3C[C@H]2CO)n1` [Example 42], for which the concentration for half-maximal inhibition (IC50) fell in the range of 7080 to 10200 nM.

Consider `CCCCN(CCCC)C(=O)c1cc(C)n(-c2ccc(-c3cc(C)cc(C)c3)cc2C(=O)N2Cc3ccccc3C[C@H]2CO)n1` [Example 43], for which the IC50 was in the range of 593 to 614 nM.

Regarding `CCCCN(CCCC)C(=O)c1cc(C)n(-c2ccc(-c3ccc(F)c(F)c3)cc2C(=O)N2Cc3ccccc3C[C@H]2CO)n1` [Example 44], the IC50 was in the range of 2090 to 2180 nM.

`CCCCN(CCCC)C(=O)c1cc(C)n(-c2ccc(-c3cccc(Cl)c3Cl)cc2C(=O)N2Cc3ccccc3C[C@H]2CO)n1` [Example 45]: the IC50 was in the range of 7160 to 7600 nM.

With `CCCCN(CCCC)C(=O)c1cc(C)n(-c2ccc(-c3ccc(OC)c4ccccc34)cc2C(=O)N2Cc3ccccc3C[C@H]2CO)n1` [Example 46], the half-inhibitory concentration (IC50) is > 16000 nM.

As for `CCCCN(CCCC)C(=O)c1cc(C)n(-c2ccc(-c3cccc(C)c3)cc2C(=O)N2Cc3ccccc3C[C@H]2CO)n1` [Example 47], the IC50 lay within 619 to 631 nM.

For `CCCCN(CCCC)C(=O)c1cc(C)n(-c2ccc(-c3ccc(S(=O)(=O)N4CCOCC4)cc3)cc2C(=O)N2Cc3ccccc3C[C@H]2CO)n1` [Example 48], the IC50 is 953 to 964 nM.

For `CCCCN(CCCC)C(=O)c1cc(C)n(-c2ccc(-c3cccc(OC)c3)cc2C(=O)N2Cc3ccccc3C[C@H]2CO)n1` [Example 49], the IC50 lay in the range of 896 to 978 nM.

Regarding `CCCCN(CCCC)C(=O)c1cc(C)n(-c2ccc(-c3ccc(C)c(C)c3)cc2C(=O)N2Cc3ccccc3C[C@H]2CO)n1` [Example 50], the IC50 is 881 to 933 nM.

Take `CCCCN(CCCC)C(=O)c1cc(C)n(-c2ccc(-c3ccc(OCC)nc3)cc2C(=O)N2Cc3ccccc3C[C@H]2CO)n1` [Example 51]: the IC50 was in the range of 856 to 894 nM.

Another assay deals with BCL-2 binding to BAK peptide (Homo sapiens, UniProt P10415). Kind of assay: BCL2 SPR solution inhibition assay, BAK peptide surface (Biacore A100). The note with it: read-out: BCL2_SPR IC50 BAK.
BCL-2 binding to BAK peptide, sequence (P10415 whole entry): as above
Source text: as §1, §2, §3, §4, §5, §6, §7
Take `CCCCN(CCCC)C(=O)c1cc(C)n(-c2ccc(-c3ccc(Cl)c(C(N)=O)c3)cc2C(=O)N2Cc3ccccc3C[C@H]2CO)n1` [Example 34]: the IC50 is 426 to 429 nM.

As to `CCCCN(CCCC)C(=O)c1cc(C)n(-c2ccc(-c3ccc(Cl)c(C(=O)NC)c3)cc2C(=O)N2Cc3ccccc3C[C@H]2CO)n1` [Example 35], the 50% inhibitory concentration (IC50) was 357 to 366 nM.

For `CCCCN(CCCC)C(=O)c1cc(C)n(-c2ccc(-c3cccc(OC(F)(F)F)c3)cc2C(=O)N2Cc3ccccc3C[C@H]2CO)n1` [Example 36], the IC50 lay within 741 to 759 nM.

For `CCCCN(CCCC)C(=O)c1cc(C)n(-c2ccc(-c3ccc(C(=O)NCC)c(F)c3)cc2C(=O)N2Cc3ccccc3C[C@H]2CO)n1` [Example 37], the IC50 is 239 to 240 nM.

As for `CCCCN(CCCC)C(=O)c1cc(C)n(-c2ccc(-c3cccc(S(C)(=O)=O)c3)cc2C(=O)N2Cc3ccccc3C[C@H]2CO)n1` [Example 38], the IC50 lay within 632 to 656 nM.

Regarding `CCCCN(CCCC)C(=O)c1cc(C)n(-c2ccc(-c3ccc(Cl)c(C(=O)N(C)C)c3)cc2C(=O)N2Cc3ccccc3C[C@H]2CO)n1` [Example 39], the IC50 is 617 to 657 nM.

As for `CCCCN(CCCC)C(=O)c1cc(C)n(-c2ccc(-c3ccccc3C#N)cc2C(=O)N2Cc3ccccc3C[C@H]2CO)n1` [Example 40], the 50% inhibitory concentration (IC50) lay in the range of 4940 to 5880 nM.

As for `CCCCN(CCCC)C(=O)c1cc(C)n(-c2ccc(-c3c(C)noc3C)cc2C(=O)N2Cc3ccccc3C[C@H]2CO)n1` [Example 41], the IC50 lay in the range of 1800 to 2550 nM.

For the compound `CCCCN(CCCC)C(=O)c1cc(C)n(-c2ccc(-c3cccc(F)c3Cl)cc2C(=O)N2Cc3ccccc3C[C@H]2CO)n1` [Example 42], the IC50 was 6370 to 7210 nM.

With `CCCCN(CCCC)C(=O)c1cc(C)n(-c2ccc(-c3cc(C)cc(C)c3)cc2C(=O)N2Cc3ccccc3C[C@H]2CO)n1` [Example 43], the IC50 lay in the range of 886 to 905 nM.

Turning to `CCCCN(CCCC)C(=O)c1cc(C)n(-c2ccc(-c3ccc(F)c(F)c3)cc2C(=O)N2Cc3ccccc3C[C@H]2CO)n1` [Example 44], the IC50 fell in the range of 2500 to 2960 nM.

Turning to `CCCCN(CCCC)C(=O)c1cc(C)n(-c2ccc(-c3cccc(Cl)c3Cl)cc2C(=O)N2Cc3ccccc3C[C@H]2CO)n1` [Example 45], the half-maximal inhibitory concentration (IC50) fell in the range of 7410 to 7540 nM.

On to `CCCCN(CCCC)C(=O)c1cc(C)n(-c2ccc(-c3ccc(OC)c4ccccc34)cc2C(=O)N2Cc3ccccc3C[C@H]2CO)n1` [Example 46], for which the IC50 is > 16000 nM.

Take `CCCCN(CCCC)C(=O)c1cc(C)n(-c2ccc(-c3cccc(C)c3)cc2C(=O)N2Cc3ccccc3C[C@H]2CO)n1` [Example 47]: the IC50 lay within 503 to 589 nM.

Regarding `CCCCN(CCCC)C(=O)c1cc(C)n(-c2ccc(-c3ccc(S(=O)(=O)N4CCOCC4)cc3)cc2C(=O)N2Cc3ccccc3C[C@H]2CO)n1` [Example 48], the IC50 fell in the range of 665 to 675 nM.

On to `CCCCN(CCCC)C(=O)c1cc(C)n(-c2ccc(-c3cccc(OC)c3)cc2C(=O)N2Cc3ccccc3C[C@H]2CO)n1` [Example 49], for which the IC50 lay in the range of 626 to 696 nM.

As for `CCCCN(CCCC)C(=O)c1cc(C)n(-c2ccc(-c3ccc(C)c(C)c3)cc2C(=O)N2Cc3ccccc3C[C@H]2CO)n1` [Example 50], the IC50 is 793 to 883 nM.

For `CCCCN(CCCC)C(=O)c1cc(C)n(-c2ccc(-c3ccc(OCC)nc3)cc2C(=O)N2Cc3ccccc3C[C@H]2CO)n1` [Example 51], the IC50 was 656 to 741 nM.
